Results from PMC10518257 (Nature Cancer, 2023).
Where “and” joins values, the source holds several entries; their conditions need not be identical. Equal values may be shown once.

Assays:
LUAD-0057AS1 PDX = experiment: PDX efficacy study
LUAD-0087AS2 PDX = experiment: PDX efficacy study; details: LUAD-0087AS2, 30 mg/kg BID, individual animals

`COc1cc2nccc(Oc3ccc(NC(=O)C4(C(=O)Nc5ccc(F)cc5)CC4)cc3)c2cc1OC` [Cabozantinib] was tested, and the tumor shrinkage (LUAD-0057AS1 PDX; 30 mg per kg QD) was “did not lead to any tumor shrinkage”, the “Area Under Curve of tumor growth, Mean” value (LUAD-0057AS1 PDX; 30 mg/kg QD) was 1051 and the Tumor volume (LUAD-0057AS1 PDX; 30 mg/kg QD, day 0, individual animals) was 139.24 mm3 and 130.83 mm3 and 132.84 mm3 and 134.85 mm3 and 137.16 mm3 and 136.86 mm3 and 128.59 mm3 (2×). For the same compound, the Tumor volume (LUAD-0057AS1 PDX; 30 mg/kg QD, day 3, individual animals) was 143.69 mm3 (2×) and 141.55 mm3 and 159.83 mm3 and 157.37 mm3 and 161.94 mm3 and 155.09 mm3 and 150.43 mm3, the Tumor volume (LUAD-0057AS1 PDX; 30 mg/kg QD, day 7, individual animals) was 150.13 mm3 and 145.84 mm3 and 157.07 mm3 and 171.9 mm3 and 159.66 mm3 and 132.84 mm3 and 161.94 mm3 and 154.85 mm3 and the Tumor volume (LUAD-0057AS1 PDX; 30 mg/kg QD, day 10, individual animals) was 150.13 mm3 and 154.85 mm3 (2×) and 171.06 mm3 and 197.55 mm3 and 217.15 mm3 and 132.84 mm3 and 165.92 mm3. For the same compound, the Tumor volume (LUAD-0057AS1 PDX; 30 mg/kg QD, day 14, individual animals) was 150.13 mm3 and 176.28 mm3 and 188.03 mm3 (3×) and 224.35 mm3 and 288.71 mm3 and 168.78 mm3, the Tumor volume (LUAD-0057AS1 PDX; 30 mg/kg QD, day 19, individual animals) was 150.13 mm3 and 183.33 mm3 and 195.09 mm3 and 204.49 mm3 and 294.92 mm3 and 176.28 mm3 and 193.69 mm3 and 188.03 mm3 and the Tumor volume (LUAD-0057AS1 PDX; 30 mg/kg QD, day 23, individual animals) was 194.67 mm3 and 219.37 mm3 and 246.79 mm3 and 251.12 mm3 and 340.1 mm3 and 242.75 mm3 and 230.72 mm3 and 228.34 mm3. The “Change in Tumor Volume” value (LUAD-0057AS1 PDX; 30 mg/kg QD, end of study, individual tumors) was 39.809% and 67.6756% and 85.7799% and 86.2217% and 147.959% and 77.371% and 79.423% and 77.5721%.
`COC1(C(=O)NC(C)c2ccc(-n3cc(F)cn3)nc2)CCC(c2nc(C)cc(Nc3cc(C)[nH]n3)n2)CC1` (stereo not drawn) [Prasletinib] was tested, and the Tumor volume (LUAD-0087AS2 PDX; treatment day 0) was 122.74 and 122.52 (2×) and 118.47 (2×), the Tumor volume (LUAD-0087AS2 PDX; treatment day 3) was 116.87 and 110.97 (2×) and 118.47 and 114.83 and the Tumor volume (LUAD-0087AS2 PDX; treatment day 7) was 100.16 and 96.62 (2×) and 101.37 and 91.61. For the same compound, the Tumor volume (LUAD-0087AS2 PDX; treatment day 10) was 100.16 and 103.77 and 96.62 and 99.78 and 95.03, the Tumor volume (LUAD-0087AS2 PDX; treatment day 14) was 96.88 and 83.83 and 88.25 and 99.78 and 90.28 and the Tumor volume (LUAD-0087AS2 PDX; treatment day 17) was 103.77 and 79.42 and 83.83 (2×) and 96.62. For the same compound, the Tumor volume (LUAD-0087AS2 PDX; treatment day 21) was 90.28 and 70.82 and 74.9 and 83.83 (2×), the Tumor volume (LUAD-0087AS2 PDX; treatment day 24) was 74.9 and 54.36 and 71.99 (2×) and 58.99 and the Tumor volume (LUAD-0087AS2 PDX; treatment day 29) was 72.18 and 54.36 and 71.99 and 57.83 and 56.67. The Tumor volume (LUAD-0087AS2 PDX; treatment day 32) was 75.04 and 60.32 (2×) and 74.9 and 57.83, the Tumor volume (LUAD-0087AS2 PDX; treatment day 35) was 75.04 and 60.32 and 74.9 (2×) and 57.83 and the Tumor volume (LUAD-0087AS2 PDX; treatment day 38) was 75.04 and 60.32 and 77.63 and 90.28 and 57.83. For the same compound, the Tumor volume (LUAD-0087AS2 PDX; treatment day 42) was 77.87 and 68.07 and 77.63 and 90.28 and 60.32 and the Tumor volume (LUAD-0087AS2 PDX; treatment day 45) was 77.87 and 68.07 and 70.69 (2×) and 60.32.
